Experimental data as given in PubChem BioAssay (NCI).
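Assay format: 96-well plates, 48-hour exposure. GI50 is the concentration that inhibits growth by half. TGI marks complete inhibition of growth.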

What was measured:
Test in all cases: DTP human tumour cell line panel, 48 h
[1] = system: A498 renal
[2] = system: ACHN renal
[3] = system: CCRF-CEM leukemia
[4] = system: DU-145 prostate
[5] = system: HL-60(TB) leukemia
[6] = system: HOP-92 NSCLC
[7] = system: HS 578T breast
[8] = system: K-562 leukemia
[9] = system: MOLT-4 leukemia
[10] = system: NCI-H226 lung
[11] = system: NCI-H522 lung
[12] = system: NCI/ADR-RES ovarian
[13] = system: OVCAR-3 ovarian
[14] = system: OVCAR-5 ovarian
[15] = system: RPMI-8226 leukemia
[16] = system: SK-MEL-2 melanoma
[17] = system: SK-MEL-5 melanoma
[18] = system: SK-OV-3 ovarian
[19] = system: SN12C renal
[20] = system: SNB-75 CNS
[21] = system: SR leukemia
[22] = system: T-47D breast
[23] = system: UACC-62 melanoma
[24] = system: UO-31 renal

SMILES: CCCN1CCN(c2ccc3nc(-c4ccc5nc(-c6ccc(OCC)cc6)[nH]c5c4)[nH]c3c2)CC1
- GI50 [1]: 1300 nM
- TGI [1]: 3010 nM
- GI50 [2]: 1150 nM
- TGI [2]: 2400 nM
- GI50 [3]: 629 nM
- TGI [3]: 3580 nM
- GI50 [4]: 1330 nM
- TGI [4]: 2780 nM
- GI50 [5]: 1080 nM
- TGI [5]: 3550 nM
- GI50 [6]: 5050 nM
- TGI [6]: 28400 nM
- GI50 [7]: 3590 nM
- TGI [7]: 50100 nM
- GI50 [8]: 418 nM
- TGI [8]: 1820 nM
- GI50 [9]: 1060 nM
- TGI [9]: 3420 nM
- GI50 [10]: 10100 nM
- TGI [10]: 32900 nM
- GI50 [11]: 1160 nM
- TGI [11]: 3460 nM
- GI50 [12]: 2840 nM
- TGI [12]: > 100000 nM
- GI50 [13]: 1990 nM
- TGI [13]: 3590 nM
- GI50 [14]: 1880 nM
- TGI [14]: 3360 nM
- GI50 [15]: 382 nM
- TGI [15]: 2850 nM
- GI50 [16]: 2340 nM
- TGI [16]: 5860 nM
- GI50 [17]: 1040 nM
- TGI [17]: 2240 nM
- GI50 [18]: 1330 nM
- TGI [18]: 3370 nM
- GI50 [19]: > 100000 nM
- TGI [19]: > 100000 nM
- GI50 [20]: 567 nM
- TGI [20]: 29600 nM
- GI50 [21]: 404 nM
- TGI [21]: 2580 nM
- GI50 [22]: 1410 nM
- TGI [22]: 6360 nM
- GI50 [23]: 1070 nM
- TGI [23]: 26700 nM
- GI50 [24]: 14300 nM
- TGI [24]: 43900 nM
